# Source: patent US10844032B2, “Substituted benzofuran, benzothiophene and indole Mcl-1 inhibitors” (Vanderbilt University, priority 2012, dated 2020)
# pKi: −log10 of the molar value.
# Biological target: recombinant Mcl-1 (residues 172-327) (Homo sapiens (Human), UniProt Q07820)
# Experiment: Bak peptide fluorescence polarization anisotropy competition assay, Mcl-1
# Type: binding
# Details: Table 2, Ki range; FITC-Bak peptide 10 nM, Mcl-1 14 nM; read-out: Ki for inhibition of Mcl-1
# recombinant Mcl-1 (residues 172-327), sequence (Q07820 172-327): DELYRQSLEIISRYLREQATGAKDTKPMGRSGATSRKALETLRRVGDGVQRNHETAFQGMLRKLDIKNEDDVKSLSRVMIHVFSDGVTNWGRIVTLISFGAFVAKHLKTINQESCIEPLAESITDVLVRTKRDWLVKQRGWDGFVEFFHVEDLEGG
row,Compound,pKi
1,"Cc1cc(OCCCc2c(C(=O)NS(=O)(=O)c3ccccc3)[nH]c3c(-c4ccnn4C(C)C)cccc23)cc(C)c1Cl [Example 304, 3-(3-(4-chloro-3,5-dimethylphenoxy)propyl)-7-(1-isopropyl-1H-pyrazol-5-yl)-N-(phenylsulfonyl)-1H-indole-2-carboxamide]",≥ 7.00
2,"Cc1cc(OCCCc2c(C(=O)NS(=O)(=O)c3ccccc3)[nH]c3c(-c4c(C)n[nH]c4C)cccc23)cc(C)c1Cl [Example 305, 3-(3-(4-chloro-3,5-dimethylphenoxy)propyl)-7-(3,5-dimethyl-1H-pyrazol-4-yl)-N-(phenylsulfonyl)-1H-indole-2-carboxamide]",≥ 7.00
3,"Cc1cc(OCCCc2c(C(=O)NS(=O)(=O)c3ccccc3)[nH]c3c(-c4c(COCCN(C)C)nn(C)c4C)cccc23)cc(C)c1Cl [Example 308, 3-(3-(4-chloro-3,5-dimethylphenoxy)propyl)-7-(3-((2-(dimethylamino)ethoxy)methyl)-1,5-dimethyl-1H-pyrazol-4-yl)-N-(phenylsulfonyl)-1H-indole-2-carboxamide]",≥ 7.00

# Continued, values first:
row,pKi,Compound
1,≥ 7.00,"Cc1cc(OCCCc2c(C(=O)NS(=O)(=O)CCNC(=O)c3cc(C)n(-c4ccc(F)cc4)c3C)[nH]c3ccccc23)cc(C)c1Cl [Example 279, 3-(3-(4-chloro-3,5-dimethylphenoxy)propyl)-N-((2-(1-(4-fluorophenyl)-2,5-dimethyl-1H-pyrrole-3-carboxamido)ethyl)sulfonyl)-1H-indole-2-carboxamide]"
2,≥ 7.00,"Cc1cc2nccn2cc1-c1cccc2c(CCCOc3cc(C)c(Cl)c(C)c3)c(C(=O)NS(=O)(=O)c3ccccc3)[nH]c12 [Example 299, 3-(3-(4-chloro-3,5-dimethylphenoxy)propyl)-7-(7-methylimidazo[1,2-a]pyridin-6-yl)-N-(phenylsulfonyl)-1H-indole-2-carboxamide]"
3,≥ 7.00,"Cc1cc2nnnn2cc1-c1cccc2c(CCCOc3cc(C)c(Cl)c(C)c3)c(C(=O)NS(=O)(=O)c3ccccc3)[nH]c12 [Example 300, 3-(3-(4-chloro-3,5-dimethylphenoxy)propyl)-7-(7-methyltetrazolo[1,5-a]pyridin-6-yl)-N-(phenylsulfonyl)-1H-indole-2-carboxamide]"
4,≥ 7.00,"COc1nccc(C)c1-c1cccc2c(CCCOc3cc(C)c(Cl)c(C)c3)c(C(=O)NS(=O)(=O)c3ccccc3)[nH]c12 [Example 301, 3-(3-(4-chloro-3,5-dimethylphenoxy)propyl)-7-(2-methoxy-4-methylpyridin-3-yl)-N-(phenylsulfonyl)-1H-indole-2-carboxamide]"
5,≥ 7.00,"CCn1nccc1-c1cccc2c(CCCOc3cc(C)c(Cl)c(C)c3)c(C(=O)NS(=O)(=O)c3ccccc3)[nH]c12 [Example 302, 3-(3-(4-chloro-3,5-dimethylphenoxy)propyl)-7-(1-ethyl-1H-pyrazol-5-yl)-N-(phenylsulfonyl)-1H-indole-2-carboxamide]"
6,≥ 7.00,"CCCn1nccc1-c1cccc2c(CCCOc3cc(C)c(Cl)c(C)c3)c(C(=O)NS(=O)(=O)c3ccccc3)[nH]c12 [Example 303, 3-(3-(4-chloro-3,5-dimethylphenoxy)propyl)-N-(phenylsulfonyl)-7-(1-propyl-1H-pyrazol-5-yl)-1H-indole-2-carboxamide]"

# Same assay, conditions: read-out: Ki for inhibition of Mcl-1
row,pKi,Compound
1,6.30 to 6.52,"Cc1cc(OCCCc2c(C(=O)NS(=O)(=O)CCNC(=O)c3cccn3Cc3ccccc3)n(Cc3cccnc3)c3cc(Cl)ccc23)cc(C)c1Cl [Example 277, N-((2-(1-benzyl-1H-pyrrole-2-carboxamido)ethyl)sulfonyl)-6-chloro-3-(3-(4-chloro-3,5-dimethylphenoxy)propyl)-1-(pyridin-3-ylmethyl)-1H-indole-2-carboxamide]"
2,6.52 to 7.00,"Cc1cc(OCCCc2c(C(=O)NS(=O)(=O)CCNC(=O)c3cccn3Cc3ccccc3)n(Cc3ccccc3)c3cc(Cl)ccc23)cc(C)c1Cl [Example 278, 1-benzyl-N-((2-(1-benzyl-1H-pyrrole-2-carboxamido)ethyl)sulfonyl)-6-chloro-3-(3-(4-chloro-3,5-dimethylphenoxy)propyl)-1H-indole-2-carboxamide]"
